Measured values as given in patent US20050282755A1, “Compositions having antimicrobial activity and uses thereof” (priority 2004, published 2005).
Converted amounts (≈) assume the structure as drawn. Like-named read-outs stand apart in the source and are kept apart here. Non-standard residues stand in square brackets, D forms with d. Residues, ends and D or L forms follow the SMILES beside them. *: point of attachment. Lauroyl = CCCCCCCCCCCC(=O)*

Key:
[1] = system: Staphylococcus aureus ATCC 29213; assay: MIC, NCCLS M7-A6 broth microdilution, cation-adjusted Mueller Hinton broth (Table 9, no superscript); type: cell-based; conditions: ATCC 29213
Procedure, shortened: (§1)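 MIC determined by microdilution in cation-adjusted Mueller Hinton broth after overnight growth at 37° C, defined as the lowest peptide level lacking turbidity.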

[2] = system: Escherichia coli ATCC 25922; assay: MIC, NCCLS M7-A6 broth microdilution (Table 9, no superscript); type: cell-based; conditions: ATCC 25922
Procedure, shortened: as §1

[3] = system: Staphylococcus epidermidis ATCC 12228; assay: as above; type: cell-based; conditions: ATCC 12228
Procedure, shortened: as §1

[4] = system: Pseudomonas aeruginosa ATCC 27853; assay: as above; type: cell-based; conditions: ATCC 27853
Procedure, shortened: as §1

Salmonella dublin (Lane) [5] = assay: as above; type: cell-based
Procedure, shortened: as §1

[6] = system: Candida albicans ATCC 18804; assay: MIC in yeasts, NCCLS M27-A2 broth microdilution, RPMI 1640 (Table 9, letter e); type: cell-based; conditions: ATCC 18804
Procedure, shortened: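 Plates incubated 24 to 48 hours at 37° C, with yeast seeded at 0.5×10^3–2.5×10^3 CFU/milliliter final in RPMI 1640 (glutamine, phenol red indicator). MIC was read as the lowest peptide concentration showing no visible growth.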

[7] = system: Propionibacterium acnes ATCC 6919; type: cell-based
Method: A second method that was used to determine the MIC in P. acnes for selected antimicrobial agents was a non-standard broth microdilution method that used an assay buffer composed of reinforced Clostridial broth. Briefly, a log-phase bacterial culture of P. acnes was used to inoculate wells of a 96-well plate so that the final inoculum for each well contained 5×10^5 to 1×10^6 CFU/milliliter. […] Plates were incubated for 48-72 hours at 37° C. in a GasPak anaerobic chamber. The lowest concentration of peptide that contained no visible growth as evidenced by a lack of turbidity when compared to the control (no peptide) was determined as the MIC. MIC values that utilized this method of MIC determination are indicated in Table 9 with a subscript letter “d.”

Salmonella dublin (Lane) [8] = conditions: pH 7.4
[9] = system: Staphylococcus aureus ATCC 29213; conditions: ATCC 29213, pH 7.4
human red blood cells = type: cell-based; conditions: red cells of human
Method: Hemoglobin-release assays with human red blood cells (RBC) were performed to determine the hemolytic activity of granulysin peptides. Human RBCs (San Diego Blood Bank, San Diego, Calif.) were washed three times in PBS buffer (8 mM Na2HPO4, 1.5 mM KH2PO4, 140 mM NaCl and 2.7 mM KCl, pH 7.4), resuspended in PBS to the concentration of 5% (v/v). The RBC were then exposed to different peptide compositions at various concentrations (100-6.25 micromolar) and incubated at 37° C. for 60 minutes in a total volume of 120 microliters. Every experiment included a negative control without peptide and maximum control treated with 5% TX-100 for complete hemoglobin release. Samples were centrifuged for 1 minute at 13,000 g to remove debris and intact cells. The hemoglobin-containing supernatant was removed and transferred to a microwell plate. Hemoglobin release was quantified at A540 using a Versamax plate reader (Molecular Devices). The degree of hemolysis is expressed as percentage of hemolysis compared to the […], using the following formula: % hemolysis=(sample−neg. control)/(max. control−neg. control)×100.

SMILES	MIC E. coli [2]	MIC S. epidermidis [3]	MIC P. aeruginosa [4]	MIC P. acnes [7]	MIC S. dublin (Salmonella dublin (Lane) [8])	MIC S. aureus [9]	further results
CCCCCCCCCCCC(=O)N[C@H](C(=O)N[C@@H](CCCNC(=N)N)C(=O)N[C@H](C(=O)N[C@@H](CO)C(=O)N[C@@H](CCCNC(=N)N)C(=O)N[C@H](C(=O)NCC(=O)N[C@@H](CCCNC(=N)N)C(=O)N[C@@H](CO)C(=O)N[C@@H](CCCNC(=N)N)C(=O)N[C@@H](Cc1c[nH]c2ccccc12)C(=O)N[C@@H](CCCNC(=N)N)C(=O)N[C@@H](CC(=O)O)C(=O)N[C@@H](Cc1c[nH]c2ccccc12)C(=O)N[C@@H](CO)C(=O)N[C@@H](CCCNC(=N)N)C(=O)N[C@@H](CC(N)=O)C(=O)N[C@@H](Cc1ccccc1)C(=O)N[C@@H](CCSC)C(=O)N[C@@H](CCCNC(=N)N)C(N)=O)[C@@H](C)O)C(C)C)[C@@H](C)O [Peptide 63] (Lauroyl-TRVSRTGRSRWRDWSRNFMR-NH2)	32 µg/mL (≈ 11.5 µM)	2 µg/mL (≈ 0.716 µM)	64 µg/mL (≈ 22.9 µM)	12.5 µg·days/mL	–	–	MIC S. aureus [1]: 8 µg/mL (≈ 2.87 µM); MIC S. dublin (Salmonella dublin (Lane) [5]): 16 µg/mL (≈ 5.73 µM); MIC C. albicans [6]: 16e ug/mL
CCCCCCCCCCCC(=O)NCCCC[C@H](NC(=O)[C@H](CCCNC(=N)N)NC(=O)[C@H](CCSC)NC(=O)[C@H](Cc1ccccc1)NC(=O)[C@H](CC(N)=O)NC(=O)[C@H](CCCNC(=N)N)NC(=O)[C@H](CO)NC(=O)[C@H](Cc1c[nH]c2ccccc12)NC(=O)[C@H](CC(=O)O)NC(=O)[C@H](CCCNC(=N)N)NC(=O)[C@H](Cc1c[nH]c2ccccc12)NC(=O)[C@H](CCCNC(=N)N)NC(=O)[C@H](CO)NC(=O)[C@H](CCCNC(=N)N)NC(=O)CNC(=O)[C@@H](NC(=O)[C@H](CCCNC(=N)N)NC(=O)[C@H](CO)NC(=O)[C@@H](NC(=O)[C@H](CCCNC(=N)N)NC(=O)[C@@H](NC(=O)CCCCCCCCCCC)[C@@H](C)O)C(C)C)[C@@H](C)O)C(N)=O [Peptide 66] (Lauroyl-TRVSRTGRSRWRDWSRNFMRK(Lauroyl)-NH2)	–	–	–	100 µg·days/mL	25b ug/mL	25b ug/mL	–
CCCCCCCCCCCC(=O)NCCCC[C@@H](NC(=O)[C@@H](CCCNC(=N)N)NC(=O)[C@@H](CCSC)NC(=O)[C@@H](Cc1ccccc1)NC(=O)[C@@H](CC(N)=O)NC(=O)[C@@H](CCCNC(=N)N)NC(=O)[C@@H](CO)NC(=O)[C@@H](Cc1c[nH]c2ccccc12)NC(=O)[C@@H](CC(=O)O)NC(=O)[C@@H](CCCNC(=N)N)NC(=O)[C@@H](Cc1c[nH]c2ccccc12)NC(=O)[C@@H](CCCNC(=N)N)NC(=O)[C@@H](CO)NC(=O)[C@@H](CCCNC(=N)N)NC(=O)CNC(=O)[C@H](NC(=O)[C@@H](CCCNC(=N)N)NC(=O)[C@@H](CO)NC(=O)[C@H](NC(=O)[C@@H](CCCNC(=N)N)NC(=O)[C@H](NC(C)=O)[C@H](C)O)C(C)C)[C@H](C)O)C(N)=O [Peptide 65] (Ac-[dT][dR][dV][dS][dR][dT]G[dR][dS][dR][dW][dR][dD][dW][dS][dR][dN][dF][dM][dR][dK](Lauroyl)-NH2)	–	–	–	25 µg·days/mL	6b ug/mL	3b ug/mL	–
CSCC[C@@H](NC(=O)[C@@H](Cc1ccccc1)NC(=O)[C@@H](CC(N)=O)NC(=O)[C@@H](CCCNC(=N)N)NC(=O)[C@@H](CO)NC(=O)[C@@H](Cc1c[nH]c2ccccc12)NC(=O)[C@@H](CC(=O)O)NC(=O)[C@@H](CCCNC(=N)N)NC(=O)[C@@H](Cc1c[nH]c2ccccc12)NC(=O)[C@@H](CCCNC(=N)N)NC(=O)[C@@H](CO)NC(=O)[C@@H](CCCNC(=N)N)NC(=O)CNC(=O)[C@H](NC(=O)[C@@H](CCCNC(=N)N)NC(=O)[C@@H](CO)NC(=O)[C@H](NC(=O)[C@@H](CCCNC(=N)N)NC(=O)[C@H](NC(=O)[C@@H](C)NC(=O)[C@@H](C)NC(=O)[C@@H](CCCCN)NC(=O)[C@@H](CCCCN)NC(=O)[C@@H](CCCCN)NC(=O)[C@@H](CCCCN)NC(=O)[C@@H](CCCCN)NC(=O)[C@@H](CCCCN)NC(=O)[C@@H](CCCCN)NC(=O)[C@H](N)CCCCN)[C@H](C)O)C(C)C)[C@H](C)O)C(=O)N[C@H](CCCNC(=N)N)C(N)=O [Peptide 36, H2N-kkkkkkkkaatrvsrtgrsrwrdwsrnfmr-NH2] (H-[dK][dK][dK][dK][dK][dK][dK][dK][dA][dA][dT][dR][dV][dS][dR][dT]G[dR][dS][dR][dW][dR][dD][dW][dS][dR][dN][dF][dM][dR]-NH2)	–	–	–	25 µg·days/mL	6b ug/mL	6b ug/mL	–
CCCCCCCCCCCC(=O)N[C@@H](C(=O)N[C@H](CCCNC(=N)N)C(=O)N[C@@H](C(=O)N[C@H](CO)C(=O)N[C@H](CCCNC(=N)N)C(=O)N[C@@H](C(=O)NCC(=O)N[C@H](CCCNC(=N)N)C(=O)N[C@H](CO)C(=O)N[C@H](CCCNC(=N)N)C(=O)N[C@H](Cc1c[nH]c2ccccc12)C(=O)N[C@H](CCCNC(=N)N)C(=O)N[C@H](CC(=O)O)C(=O)N[C@H](Cc1c[nH]c2ccccc12)C(=O)N[C@H](CO)C(=O)N[C@H](CCCNC(=N)N)C(=O)N[C@H](CC(N)=O)C(=O)N[C@H](Cc1ccccc1)C(=O)N[C@H](CCSC)C(=O)N[C@H](CCCNC(=N)N)C(=O)N[C@H](C)C(=O)N[C@H](C)C(=O)N[C@@H](CCCCNC(C)=O)C(N)=O)[C@H](C)O)C(C)C)[C@H](C)O [Peptide 85, Lauryl-trvsrtgrsrwrdwsrnfmraaK(Ac)-NH2]	8 µg/mL (≈ 2.58 µM)	2 µg/mL (≈ 0.644 µM)	>64 µg/mL	–	–	–	Hemolytic effect on human red blood cells (human red blood cells; 6.25 Micromolar): 16%; Hemolytic effect on human red blood cells (human red blood cells; 12.5 Micromolar): 26%; Hemolytic effect on human red blood cells (human red blood cells; 25 Micromolar): 36%; Hemolytic effect on human red blood cells (human red blood cells; 50 Micromolar): 53%; Hemolytic effect on human red blood cells (human red blood cells; 100 Micromolar): 83%
CSCC[C@H](NC(=O)[C@H](Cc1ccccc1)NC(=O)[C@H](CC(N)=O)NC(=O)[C@H](CCCNC(=N)N)NC(=O)[C@H](CO)NC(=O)[C@H](Cc1c[nH]c2ccccc12)NC(=O)[C@H](CC(=O)O)NC(=O)[C@H](CCCNC(=N)N)NC(=O)[C@H](Cc1c[nH]c2ccccc12)NC(=O)[C@H](CCCNC(=N)N)NC(=O)[C@H](CO)NC(=O)[C@H](CCCNC(=N)N)NC(=O)CNC(=O)[C@@H](NC(=O)[C@H](CCCNC(=N)N)NC(=O)[C@H](CO)NC(=O)[C@@H](NC(=O)[C@H](CCCNC(=N)N)NC(=O)[C@@H](NC(C)=O)[C@@H](C)O)C(C)C)[C@@H](C)O)C(=O)N[C@@H](CCCNC(=N)N)C(=O)N[C@@H](CCCNC(=N)N)C(=O)N[C@@H](CCCNC(=N)N)C(N)=O [Peptide 13] (Ac-TRVSRTGRSRWRDWSRNFMRRR-NH2)	–	–	–	25 µg·days/mL	25b ug/mL	25b ug/mL	–
CSCC[C@@H](NC(=O)[C@@H](Cc1ccccc1)NC(=O)[C@@H](CC(N)=O)NC(=O)[C@@H](CCCNC(=N)N)NC(=O)[C@@H](C)NC(=O)[C@@H](Cc1c[nH]c2ccccc12)NC(=O)[C@@H](CC(=O)O)NC(=O)[C@@H](CCCNC(=N)N)NC(=O)[C@@H](Cc1c[nH]c2ccccc12)NC(=O)[C@@H](CCCNC(=N)N)NC(=O)[C@@H](CO)NC(=O)[C@@H](CCCNC(=N)N)NC(=O)CNC(=O)[C@H](NC(=O)[C@@H](CCCNC(=N)N)NC(=O)[C@@H](C)NC(=O)[C@H](NC(=O)[C@@H](CCCNC(=N)N)NC(=O)[C@H](NC(C)=O)[C@H](C)O)C(C)C)[C@H](C)O)C(=O)N[C@H](CCCNC(=N)N)C(N)=O [Peptide 56, Ac-trvartgrsrwrdwarnfmr-NH2] (Ac-[dT][dR][dV][dA][dR][dT]G[dR][dS][dR][dW][dR][dD][dW][dA][dR][dN][dF][dM][dR]-NH2)	4 µg/mL (≈ 1.53 µM)	2 µg/mL (≈ 0.763 µM)	>64 µg/mL	6 µg·days/mL	–	–	MIC S. aureus [1]: >64 µg/mL; MIC S. dublin (Salmonella dublin (Lane) [5]): 8 µg/mL (≈ 3.05 µM); MIC C. albicans [6]: 64e ug/mL
